DC50 data for 12 molecules are collected here from US20230295197A1, “STAT5 and STAT6 Degraders and Uses Thereof” (REGENTS OF THE UNIVERSITY OF MICHICAN, priority 2022, published 2023).

Read-outs that look alike come from different tables or passages of the source.

What is called DC50 is the concentration at which degradation of the target reaches its halfway point.

The target of the experiment is T1, STAT6 (Homo sapiens, UniProt P42226).
T1 construct: endogenous in cells; host or cells: MOLM-16, KU-812, SKNO1, MB231, L1236
T1 sequence (P42226 1-847): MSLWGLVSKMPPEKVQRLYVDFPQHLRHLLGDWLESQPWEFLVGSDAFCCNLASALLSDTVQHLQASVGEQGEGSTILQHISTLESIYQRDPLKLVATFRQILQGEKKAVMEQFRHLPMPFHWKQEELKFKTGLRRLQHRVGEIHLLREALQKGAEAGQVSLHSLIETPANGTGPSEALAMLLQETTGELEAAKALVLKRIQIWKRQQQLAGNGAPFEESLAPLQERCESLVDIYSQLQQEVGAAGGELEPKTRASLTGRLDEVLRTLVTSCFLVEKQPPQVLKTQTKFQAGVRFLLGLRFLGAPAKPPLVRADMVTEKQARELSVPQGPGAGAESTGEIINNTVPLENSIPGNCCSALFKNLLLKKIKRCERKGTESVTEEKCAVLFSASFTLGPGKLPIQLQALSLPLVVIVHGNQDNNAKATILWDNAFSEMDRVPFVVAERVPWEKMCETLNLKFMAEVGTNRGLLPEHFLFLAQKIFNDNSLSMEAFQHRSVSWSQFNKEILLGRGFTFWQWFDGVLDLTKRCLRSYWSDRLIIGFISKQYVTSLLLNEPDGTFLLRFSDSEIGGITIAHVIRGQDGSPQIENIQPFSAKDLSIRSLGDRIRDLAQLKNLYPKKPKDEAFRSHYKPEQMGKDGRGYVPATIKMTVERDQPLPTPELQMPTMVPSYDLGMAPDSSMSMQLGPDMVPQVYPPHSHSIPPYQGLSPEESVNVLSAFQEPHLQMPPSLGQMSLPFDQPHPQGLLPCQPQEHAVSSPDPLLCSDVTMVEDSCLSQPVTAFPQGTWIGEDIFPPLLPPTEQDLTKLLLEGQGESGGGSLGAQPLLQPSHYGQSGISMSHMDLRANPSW
Nature of the experiment: Immunoblotting (Western blot) analysis of STAT6 degradation efficiency of degraders in treated cells. The experiment is classed as cell-based. An outline of the steps:
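Cells (~1 million per point) treated with compounds at indicated concentrations and times, lysed in RIPA with protease/phosphatase inhibitors; 20-40 μg protein run on SDS-PAGE and blotted to PVDF. STAT6 or STAT5 rabbit mAbs with GAPDH loading control, IRDye secondaries; near-infrared fluorescence scan, band intensity quantified.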

[1] abbreviates: MOLM-16 cells, class symbols, read-out: DC50 S6 MOLM-16.
Where [2] appears, read: L1236 cells, read-out: DC50 S6 L1236.

As for `Cc1ncsc1-c1ccc([C@H](CC(=O)NCCOCCOCCOCCC(=O)N[C@H]2C[C@@H](C(=O)N3CCO[C@H](c4ccccc4)C3)N(C(=O)[C@@H](NC(=O)c3cc4cc(C(F)(F)P(=O)(O)O)ccc4s3)C(C)(C)C)C2)NC(=O)[C@@H]2C[C@@H](O)CN2C(=O)[C@@H](NC(=O)C2(F)CC2)C(C)(C)C)cc1` [Compound 573, (difluoro(2-(((S)-1-((2S,4S)-4-((S)-1-((2S,4R)-1-((S)-2-(1-fluorocyclopropane-1-carboxamido)-3,3-dimethylbutanoyl)-4-hydroxypyrrolidin-2-yl)-3-(4-(4-methylthiazol-5-yl)phenyl)-1,5-dioxo-9,12,15-trioxa-2,6-diazaoctadecan-18-amido)-2-((R)-2-phenylmorpholine-4-carbonyl)pyrrolidin-1-yl)-3,3-dimethyl-1-oxobutan-2-yl)carbamoyl)benzo[b]thiophen-5-yl)methyl)phosphonic acid], the half-maximal degradation concentration (DC50) under setting [1] is greater than 10 µM.

Regarding `O=C1CCC(N2Cc3cc(C#CCCCCCC(=O)N4CC[C@H]5CC[C@@H](C(=O)N6CC[C@@H](c7ccccc7)C6)N5C(=O)[C@@H](NC(=O)c5cc6cc(C(F)(F)P(=O)(O)O)ccc6s5)C4)ccc3C2=O)C(=O)N1` (stereo partly drawn) [Compound 574, ((2-(((5S,8S,10aR)-3-(8-(2-(2,6-dioxopiperidin-3-yl)-1-oxoisoindolin-5-yl)oct-7-ynoyl)-6-oxo-8-((S)-3-phenylpyrrolidine-1-carbonyl)decahydropyrrolo[1,2-a][1,5]diazocin-5-yl)carbamoyl)benzo[b]thiophen-5-yl)difluoromethyl)phosphonic acid], the DC50 reads like this: under setting [2], greater than 10 µM; under setting [1], greater than 10 µM.

`O=C1CCC(N2Cc3cc(C#CCCCCCC(=O)N4CC[C@H]5CC[C@@H](C(=O)N6CCOC(c7ccc(F)c(Cl)c7)C6)N5C(=O)[C@@H](NC(=O)c5cc6cc(C(F)(F)P(=O)(O)O)ccc6s5)C4)ccc3C2=O)C(=O)N1` (stereo partly drawn) [Compound 575, ((2-(((5S,8S,10aR)-8-(2-(3-chloro-4-fluorophenyl)morpholine-4-carbonyl)-3-(8-(2-(2,6-dioxopiperidin-3-yl)-1-oxoisoindolin-5-yl)oct-7-ynoyl)-6-oxodecahydropyrrolo[1,2-a][1,5]diazocin-5-yl)carbamoyl)benzo[b]thiophen-5-yl)difluoromethyl)phosphonic acid]: the DC50 under setting [2] is greater than 10 µM and the DC50 under setting [1] is greater than 10 µM.

Regarding `CC(C)(C)[C@H](NC(=O)c1cc2cc(C(F)(F)P(=O)(O)O)ccc2s1)C(=O)N1C[C@@H](OCCCCCCCCCC#Cc2cccc3c2CN(C2CCC(=O)NC2=O)C3=O)C[C@H]1C(=O)N1CCO[C@H](c2ccccc2)C1` (stereo partly drawn) [Compound 584, ((2-(((2S)-1-((2S,4S)-4-((11-(2-(2,6-dioxopiperidin-3-yl)-1-oxoisoindolin-4-yl)undec-10-yn-1-yl)oxy)-2-((R)-2-phenylmorpholine-4-carbonyl)pyrrolidin-1-yl)-3,3-dimethyl-1-oxobutan-2-yl)carbamoyl)benzo[b]thiophen-5-yl)difluoromethyl)phosphonic acid], the 50% degradation concentration (DC50) runs as follows: under setting [2], greater than 10 µM; under setting [1], 0.1 to 1 µM.

In the case of `CC(C)(C)[C@H](NC(=O)c1cc2cc(C(F)(F)P(=O)(O)O)ccc2s1)C(=O)N1C[C@@H](OCCCCCCCCCCC#Cc2cccc3c2CN(C2CCC(=O)NC2=O)C3=O)C[C@H]1C(=O)N1CCO[C@H](c2ccccc2)C1` (stereo partly drawn) [Compound 585, ((2-(((2S)-1-((2S,4S)-4-((12-(2-(2,6-dioxopiperidin-3-yl)-1-oxoisoindolin-4-yl)dodec-11-yn-1-yl)oxy)-2-((R)-2-phenylmorpholine-4-carbonyl)pyrrolidin-1-yl)-3,3-dimethyl-1-oxobutan-2-yl)carbamoyl)benzo[b]thiophen-5-yl)difluoromethyl)phosphonic acid], the DC50 is, setting by setting: under setting [2], greater than 10 µM; (MOLM-16 cells, numeric bound, read-out: DC50 S6 MOLM-16) greater than 0.3 µM.

In the case of `CC(C)(C)[C@H](NC(=O)c1cc2cc(C(F)(F)P(=O)(O)O)ccc2s1)C(=O)N1C[C@@H](OCCCCCCCCC#Cc2cccc3c2CN(C2CCC(=O)NC2=O)C3=O)C[C@H]1C(=O)N1CCO[C@H](c2ccccc2)C1` (stereo partly drawn) [Compound 586, ((2-(((2S)-1-((2S,4S)-4-((10-(2-(2,6-dioxopiperidin-3-yl)-1-oxoisoindolin-4-yl)dec-9-yn-1-yl)oxy)-2-((R)-2-phenylmorpholine-4-carbonyl)pyrrolidin-1-yl)-3,3-dimethyl-1-oxobutan-2-yl)carbamoyl)benzo[b]thiophen-5-yl)difluoromethyl)phosphonic acid], the DC50 is 1 to 10 µM under setting [2] and less than 0.1 µM under setting [1].

Consider `CC(C)(C)[C@H](NC(=O)c1cc2cc(C(F)(F)P(=O)(O)O)ccc2s1)C(=O)N1C[C@@H](OCCCCCCC#Cc2cccc3c2CN(C2CCC(=O)NC2=O)C3=O)C[C@H]1C(=O)N1CCO[C@H](c2ccccc2)C1` (stereo partly drawn) [Compound 587, ((2-(((2S)-1-((2S,4S)-4-((8-(2-(2,6-dioxopiperidin-3-yl)-1-oxoisoindolin-4-yl)oct-7-yn-1-yl)oxy)-2-((R)-2-phenylmorpholine-4-carbonyl)pyrrolidin-1-yl)-3,3-dimethyl-1-oxobutan-2-yl)carbamoyl)benzo[b]thiophen-5-yl)difluoromethyl)phosphonic acid], for which the DC50 is, setting by setting: under setting [2], 0.1 to 1 µM; under setting [1], less than 0.1 µM.

Turning to `CC(C)(C)[C@H](NC(=O)c1cc2cc(C(F)(F)P(=O)(O)O)ccc2s1)C(=O)N1C[C@@H](NC(=O)CCCC#Cc2ccc3c(c2)CN(C2CCC(=O)NC2=O)C3=O)C[C@H]1C(=O)N1CCO[C@H](c2ccccc2)C1` (stereo partly drawn) [Compound 588, ((2-(((2S)-1-((2S,4S)-4-(6-(2-(2,6-dioxopiperidin-3-yl)-1-oxoisoindolin-5-yl)hex-5-ynamido)-2-((R)-2-phenylmorpholine-4-carbonyl)pyrrolidin-1-yl)-3,3-dimethyl-1-oxobutan-2-yl)carbamoyl)benzo[b]thiophen-5-yl)difluoromethyl)phosphonic acid], the DC50 reads like this: under setting [2], greater than 10 µM; under setting [1], greater than 10 µM.

As for `CC(C)(C)c1ccc(C[C@H](NC(=O)c2cc3cc(C(F)(F)P(=O)(O)O)ccc3s2)C(=O)N2C[C@@H](OCCCCCCC#Cc3cccc4c3CN(C3CCC(=O)NC3=O)C4=O)C[C@H]2C(=O)N2CCO[C@H](c3ccccc3)C2)cc1` (stereo partly drawn) [Compound 589, ((2-(((2S)-3-(4-(tert-butyl)phenyl)-1-((2S,4S)-4-((8-(2-(2,6-dioxopiperidin-3-yl)-1-oxoisoindolin-4-yl)oct-7-yn-1-yl)oxy)-2-((R)-2-phenylmorpholine-4-carbonyl)pyrrolidin-1-yl)-1-oxopropan-2-yl)carbamoyl)benzo[b]thiophen-5-yl)difluoromethyl)phosphonic acid], the DC50 under setting [1] was in the range of 1 to 10 µM.

Consider `CC(C)(C)[C@H](NC(=O)c1cc2cc(C(F)(F)P(=O)(O)O)ccc2s1)C(=O)N1C[C@@H](OCCCCCC(=O)N2Cc3cc4c(cc3C2)C(=O)N(C2CCC(=O)NC2=O)C4)C[C@H]1C(=O)N1CCO[C@H](c2ccccc2)C1` (stereo partly drawn) [Compound 590, ((2-(((2S)-1-((2S,4S)-4-((6-(6-(2,6-dioxopiperidin-3-yl)-5-oxo-3,5,6,7-tetrahydropyrrolo[3,4-f]isoindol-2(1H)-yl)-6-oxohexyl)oxy)-2-((R)-2-phenylmorpholine-4-carbonyl)pyrrolidin-1-yl)-3,3-dimethyl-1-oxobutan-2-yl)carbamoyl)benzo[b]thiophen-5-yl)difluoromethyl)phosphonic acid], for which the DC50 under setting [1] is 1 to 10 µM.

For the molecule `CC(C)(C)c1ccc(C[C@H](NC(=O)c2cc3cc(C(F)(F)P(=O)(O)O)ccc3s2)C(=O)N2C[C@@H](OCCCCCC(=O)N3Cc4cc5c(cc4C3)C(=O)N(C3CCC(=O)NC3=O)C5)C[C@H]2C(=O)N2CCO[C@H](c3ccccc3)C2)cc1` (stereo partly drawn) [Compound 591, ((2-(((2S)-3-(4-(tert-butyl)phenyl)-1-((2S,4S)-4-((6-(6-(2,6-dioxopiperidin-3-yl)-5-oxo-3,5,6,7-tetrahydropyrrolo[3,4-f]isoindol-2(1H)-yl)-6-oxohexyl)oxy)-2-((R)-2-phenylmorpholine-4-carbonyl)pyrrolidin-1-yl)-1-oxopropan-2-yl)carbamoyl)benzo[b]thiophen-5-yl)difluoromethyl)phosphonic acid], the DC50 under setting [1] is greater than 10 µM.

As for `CC(C)(C)[C@H](NC(=O)c1cc2cc(C(F)(F)P(=O)(O)O)ccc2s1)C(=O)N1C[C@H](OCCCCCC(=O)N2Cc3cc4c(cc3C2)C(=O)N(C2CCC(=O)NC2=O)C4)C[C@H]1C(=O)N1CCO[C@H](c2ccccc2)C1` (stereo partly drawn) [Compound 592, ((2-(((2S)-1-((2S,4R)-4-((6-(6-(2,6-dioxopiperidin-3-yl)-5-oxo-3,5,6,7-tetrahydropyrrolo[3,4-f]isoindol-2(1H)-yl)-6-oxohexyl)oxy)-2-((R)-2-phenylmorpholine-4-carbonyl)pyrrolidin-1-yl)-3,3-dimethyl-1-oxobutan-2-yl)carbamoyl)benzo[b]thiophen-5-yl)difluoromethyl)phosphonic acid], the DC50 under setting [1] was 1 to 10 µM.
